Values of other authors in paper PMC10017685 (Nature Communications, 2023).

Tested on: human erythrocytes
Set-up: method as in DBAASP
Settings: cited from earlier work

| Sequence | Class (dedicated toxicity dataset used for toxicity classifier evaluation) |
| --- | --- |
| GRKKRRQRRRGALWKSLLKNVGKA [DBAASP_11807] | 0 |
| IAGKIAKIAGKIAKIAGKIA [DBAASP_14993] | 1 |
| IAGKIAKIAGKIAKIAGKIAK [DBAASP_14998] | 0 |
| IAKIAGKIAKIAGKIAK [DBAASP_14997] | 0 |
| IAKIAGKIAKIAGKIAKIAGKIAK [DBAASP_14999] | 1 |

Same assay, conditions: toxicity class label 1 or 0, meaning of the labels not given; DBAASP HC50 data, human erythrocytes; ref DBAASP; cited from earlier work

| Sequence | Class (dedicated toxicity dataset used for toxicity classifier evaluation) |
| --- | --- |
| GLMKRIKTML [DBAASP_8625] | 0 |
| GLNAFKKVFQGIHEAIKLINNHVQ [DBAASP_6933] | 0 |
| GLNALKKFFQGIHEAIKLINNHVQ [DBAASP_6934] | 0 |
| GLNALKKVFKGIHEAIKLINNHVQ [DBAASP_6924] | 0 |
| GLNALKKVFQGFHEAIKLINNHVQ [DBAASP_6935] | 0 |
| GLNALKKVFQGIHEAFKLINNHVQ [DBAASP_6936] | 0 |
| GLNALKKVFQGIHEAIKLFNNHVQ [DBAASP_6937] | 0 |
| GLNALKKVFQGIHEAIKLINKHVQ [DBAASP_6926] | 0 |
| GLNALKKVFQGIHEAIKLINNHVK [DBAASP_6927] | 0 |
| GLNALKKVFQGIHEAIKLINNHVQ [DBAASP_3355] | 0 |
| GLNALKKVFQGIHKAIKLINNHVQ [DBAASP_6925] | 0 |
| GLVGTLLGHIGKAILG [DBAASP_5369] | 0 |
| GLVGTLLGHIGKAILS [DBAASP_5370] | 0 |
| GLWSKIKDAAKTAGKAALGFVNEMV [DBAASP_14233] | 0 |
| GLWSKIKKAAKTAGKAALGFVNKMV [DBAASP_14234] | 0 |
| GMATKAGTAFGKAAKAIIGAAL [DBAASP_5720] | 0 |
| GMATKAGTALGKVAKAVIGAAL [DBAASP_2285] | 0 |
| GMLKRIKTLL [DBAASP_8628] | 0 |
| GMLKRIKTLM [DBAASP_8626] | 0 |
| GMMKRIKTMM [DBAASP_8621] | 0 |
| GRFKRFRKKFKKLFKKLS [DBAASP_628] | 0 |
| GVFLDALKKFAKGGMNAVLNPK [DBAASP_3156] | 0 |
| GVGKFLHSAKKFGQALASEIMKS [DBAASP_3769] | 0 |
| GVGKFLHSAKKFGQALVSEIMKS [DBAASP_3770] | 0 |

| Sequence | Class (dedicated toxicity dataset used for toxicity classifier evaluation) |
| --- | --- |
| GVLKRIKTLV [DBAASP_8624] | 0 |
| GVSKILHSAGKFGKAFLGEIMKS [DBAASP_3776] | 0 |
| GVVDILKGAAKDIAGHLASKVMNKL [DBAASP_4358] | 0 |
| GVVDILKGAAKDLAGHLATKVMNKL [DBAASP_4357] | 0 |
| GVVKRIKTVV [DBAASP_8620] | 0 |
| GVWSTILGGLKKFAKGGLDAIVNPK [DBAASP_5716] | 0 |
| GVWSTVLGGLKKFAKGGLEAIVNPK [DBAASP_3155] | 0 |
| GWASSIGSILGKFAKGGAQAFLQPK [DBAASP_5714] | 0 |
| GWGSFFKKAAHVGKHVGKAALTHYL [DBAASP_1004] | 0 |
| GWGSIFKHGRHAAKHIGHAAVNHYL [DBAASP_1420] | 0 |
| GWKDLLKGAAKALVKTVF [DBAASP_11233] | 0 |
| GWKKWFNRAKKVGKTVGGLAVDHYL [DBAASP_996] | 0 |
| GWKKWFTKGERLSQRHFA [DBAASP_1000] | 0 |
| GWKKWLRKGAKHLGQAAIK [DBAASP_1434] | 0 |
| GWKKWLRKGAKHLGQAAIKGLAS [DBAASP_1435] | 0 |
| GWKSVFRKAKKVGKTVGGLALDHYL [DBAASP_995] | 0 |
| GWLDVAKKIGKAAFNVAKNFI [DBAASP_7670] | 1 |
| GWLDVAKKIGKAAFNVAKNFL [DBAASP_10137] | 0 |
| GWLDVAKKKGKAAFNVAKNFI [DBAASP_7674] | 0 |
| GWLPTFGKILRKAMQLGPKLIQPI [DBAASP_5715] | 0 |
| GWRTLLKKAEVKTVGKLALKHYL [DBAASP_1409] | 0 |
| HFKGTLVNLAKKIL [DBAASP_5016] | 0 |
| HFLGKLVNLAKKIL [DBAASP_5018] | 0 |
| HFLGTKVNLAKKIL [DBAASP_5020] | 0 |

| Sequence | Class (dedicated toxicity dataset used for toxicity classifier evaluation) |
| --- | --- |
| HFLGTLKNLAKKIL [DBAASP_5019] | 0 |
| HFLGTLVKLAKKIL [DBAASP_5021] | 0 |
| HFLGTLVNKAKKIL [DBAASP_5023] | 0 |
| HFLGTLVNLAKKIK [DBAASP_5026] | 0 |
| HFLGTLVNLAKKKL [DBAASP_5025] | 0 |
| HFLGTLVNLKKKIL [DBAASP_5024] | 0 |
| HFLKTLVNLAKKIL [DBAASP_5017] | 0 |
| HKLGTLVNLAKKIL [DBAASP_5015] | 0 |
| HWRRFWHR [DBAASP_12822] | 0 |
| IAKIAGKIAKIAGKIA [DBAASP_14991] | 0 |
| IAKIAGKIAKIAGKIAKIAGKIA [DBAASP_14994] | 1 |
| IFGAILPLALGALKNLIK [DBAASP_3892] | 1 |
| IFGAIWPLALGALKNLIK [DBAASP_9405] | 1 |
| IIKKIIKKIIKK [DBAASP_13883] | 0 |
| IIKKIIKKIIKKI [DBAASP_13881] | 0 |
| IKKIIKKI [DBAASP_10843] | 0 |
| IKKILSKIKKLL [DBAASP_10745] | 0 |
| IKKILSKIKKLLK [DBAASP_7154] | 0 |
| IKKIVSKIKKLL [DBAASP_7244] | 0 |
| IKKIVSKIKKLLK [DBAASP_7245] | 0 |
| IKKIVSKIKKVLK [DBAASP_7246] | 0 |
| IKKWWSKIKKLLK [DBAASP_7156] | 0 |
| IKNAKVCVYAVCVSHK [DBAASP_12238] | 0 |
| IKWKKLLRAAKRIL [DBAASP_2253] | 0 |

| Sequence | Class (dedicated toxicity dataset used for toxicity classifier evaluation) |
| --- | --- |
| ILGAILPLVSGLLSNKL [DBAASP_4393] | 0 |
| ILGKLLKTAAGLLSNL [DBAASP_4361] | 1 |
| ILGKLLKTAAKLLSNL [DBAASP_4365] | 0 |
| ILGKLLSTAAGLLKNL [DBAASP_4363] | 0 |
| ILGKLLSTAAGLLSKL [DBAASP_4364] | 0 |
| ILGKLLSTAAKLLSKL [DBAASP_4366] | 1 |
| ILGKLLSTAAKLLSNL [DBAASP_4362] | 1 |
| ILKKLLSTAAGLLSNL [DBAASP_4360] | 0 |
| ILPFKFPFFPFRR [DBAASP_4761] | 0 |
| ILPILGNLLNGLL [DBAASP_3402] | 0 |
| ILPILGNLLNSLL [DBAASP_3403] | 0 |
| ILPILSLIGGLL [DBAASP_3346] | 0 |
| ILPIRSLIKKLL [DBAASP_5721] | 0 |
| ILPWKWPWWPWRR [DBAASP_491] | 0 |
| ILPYKYPYYPYRR [DBAASP_4763] | 0 |
| INWIKIGKKIIASL [DBAASP_18234] | 0 |
| IPPFIKKVLTTVF [DBAASP_3483] | 0 |
| ITEVITILLNRLTDRLEK [DBAASP_13425] | 0 |
| ITKQITKQLNRQTKIQSK [DBAASP_13427] | 0 |
| KALWKTMLKKLGTMAL [DBAASP_10105] | 0 |
| KFKKLFKKLSPVFKRIVQRIKDFLR [DBAASP_13190] | 0 |
| KFKKVIWKSFL [DBAASP_13719] | 0 |
